The values below come from US20240197897A1, “HETEROTANDEM BICYCLIC PEPTIDE COMPLEXES” (Bicycle Tx Limited, priority 2021, published 2024).

The nature of series [1]: NK cytotoxicity assay (NK:HT1080-luc co-culture, luciferase readout). It is filed as cell-based, human. As to conditions: NK:HT1080-luc co-culture, 24 hours, read-out: EC50 NK cytotoxicity (tumor cell killing). Here is the method: (§1) Heterotandem bicyclic peptide complexes were evaluated for NK functional readouts (cytotoxicity and cytokine secretion) in NK-tumor cell line co-cultures.
(§2) NK cells were isolated using a negative isolation kit (STEMCELL™ Technologies 17955) from the total PBMC population purified from whole blood. NK cell pellet was then resuspended in DMEM medium (Corning™ 10-013-CV) with 10% heat-inactivated fetal bovine serum (FBS; Corning® 35-011-CV), 10 mM HEPES (Gibco™ 15-630-080), and 1% Penicillin Streptomycin (Corning™ 30-002-CI), and 50 IU/mL human IL-2 (Miltenyi Biotec® 130-097-748), at a concentration of 4×10^5 cells/mL. For the NK cell cytotoxicity assays, 50 μL (2×10^4) of cell suspension was plated in the 96-well plate (Grenier® Bio One™ 655090) containing 50 μl (4×10^3) HT1080-luc cells (ATCC® CCL-121-luc2) in DMEM (Gibco™ 11875-093; with L-glutamine) with 10% heat-inactivated fetal bovine serum (FBS; Corning® 35-011-CV), 10 mM HEPES (Gibco™ 15-630-080), and 1% Penicillin Streptomycin (Corning™ 30-002-CI). […] The plates were then incubated for 24 hours at 37° C., 5% CO2. Post-incubation, plates was centrifuged at 250×g for 5 minutes and 100 μl supernatant discarded. Samples were then incubated 10 minutes with 50 μl Bright-Glo™ Luciferase Assay system (Promega™ E2620). Luminescence upon excitation at 570 nm was read using a CLARIOstar® plate-reader with MARS Data Analysis Software™. Data was fit to a four-parameter non-linear regression in GraphPad Prism™ 8.0.2 to generate an EC50 value.

In the next series the test system is HT1080-luc cells. The description is as above. It is filed as cell-based, human. The conditions noted are these: for effect on tumor cell killing by NK cells, in words: in comparison to NK:HT1080-luc co-culture without heterotandem complex (NK-TICA). Here is the method:
as §1, §2

Setting [2] is: four-parameter logistic regression, FIGS. 2-4, 6-8, 10.

Read-outs that look alike come from different tables or passages of the source. Starred links: 1 amine or outer side, 2 acyl side, 3 side chain; linkers in the order of their positions; H or OH if unused. Positions of bridges follow the written chain, without caps; N, C: chain ends. Non-standard residues stand in square brackets, D forms with d. Residues, ends and D or L forms follow the SMILES beside them. Chains are numbered I, II in the order given. No end group written: not given here. *: point of attachment. X3 = O=C(CCOCCOCCOCCOCCOCCOCCOCCOCCOCCOCCOCCOCCOCCOCCOCCOCCOCCOCCOCCOCCOCCOCCOCCOCCn1cc(CCC(=O)[*:2])nn1)[*:1]; TBMT = 2,4,6-tris(bromomethyl)-s-triazine, molecular scaffold, C(c1nc(C[*:2])nc(C[*:3])n1)[*:1]; X1 = O=C(CCOCCOCCOCCN(CCOCCOCCOCCn1cc(CCC(=O)[*:2])nn1)CCOCCOCCOCCn1cc(CCC(=O)[*:3])nn1)[*:1]; TATA = O=C(CC[*:1])N1CN(C(=O)CC[*:2])CN(C(=O)CC[*:3])C1; Hyp = O=C(O)[C@@H]1C[C@@H](O)CN1; hArg = N=C(N)NCCCC[C@H](N)C(=O)O; Cba = N[C@@H](CC1CCC1)C(=O)O; Pent4ynoyl = C#CCCC(=O)*

`CC[C@H](C)[C@@H]1NC(=O)CNC(=O)[C@H](Cc2c[nH]c3ccccc23)NC(=O)[C@H](CCC(N)=O)NC(=O)[C@@H]2CSCCC(=O)N3CN(CN(C3)C(=O)CCSC[C@@H](C(=O)N[C@@H](C)C(=O)N[C@@H](CCCCNC(=O)CCc3cn(CCOCCOCCOCCN(CCOCCOCCOCCC(=O)N[C@@H](C)C(=O)N[C@@H](CCCCNC(=N)N)C(=O)N[C@@H](CC(=O)O)C(=O)N[C@H]4CSCCC(=O)N5CN6CN(C5)C(=O)CCSC[C@H](NC(=O)[C@H](CC(C)C)NC(=O)[C@@H]5CCCN5C(=O)[C@H](CC(N)=O)NC(=O)[C@H](C(C)C)NC(=O)[C@H](CC(C)C)NC(=O)[C@@H]5C[C@@H](O)CN5C4=O)C(=O)N[C@@H](CC(C)C)C(=O)N[C@@H](Cc4c[nH]cn4)C(=O)N4CCC[C@H]4C(=O)N[C@H](CC(=O)O)C(=O)N[C@@H](Cc4c[nH]c5ccccc45)C(=O)N[C@@H](CCCCNC(=N)N)C(=O)N[C@H](C(N)=O)CSCCC6=O)CCOCCOCCOCCn4cc(CCC(=O)NCCCC[C@H](NC(=O)[C@H](C)NC(=O)[C@@H]5CSCCC(=O)N6CN7CN(C6)C(=O)CCSC[C@H](NC(=O)[C@H](CC(N)=O)NC(=O)[C@H](Cc6c[nH]cn6)NC(=O)[C@H]([C@@H](C)O)NC(=O)[C@H]([C@@H](C)O)NC(=O)[C@H](CC(C)C)NC(=O)[C@H](CC(=O)O)NC(=O)[C@@H](NC(=O)[C@H](C)N)CSCCC7=O)C(=O)N[C@@H](CCC(N)=O)C(=O)N[C@@H](Cc6c[nH]c7ccccc67)C(=O)NCC(=O)N[C@@H]([C@@H](C)CC)C(=O)N5)C(N)=O)nn4)nn3)C(N)=O)NC1=O)C(=O)CCSC[C@H](NC(=O)[C@H](C)N)C(=O)N[C@@H](CC(=O)O)C(=O)N[C@@H](CC(C)C)C(=O)N[C@@H]([C@@H](C)O)C(=O)N[C@@H]([C@@H](C)O)C(=O)N[C@@H](Cc1c[nH]cn1)C(=O)N[C@@H](CC(N)=O)C(=O)N2` [BCY15923]: the EC50 in series [1] (setting [2]) worked out at 0.044 nM. In addition, the “effect on tumor cell killing by NK cells, in words” value (“effect on tumor cell killing” below) in the series with HT1080-luc cells is given as “dose-dependent NK cell response to kill”.
For `CC(=O)N[C@H]1CSCCC(=O)N2CN3CN(C2)C(=O)CCSC[C@H](NC(=O)[C@H](CC(C)C)NC(=O)[C@H](Cc2ccc(O)cc2)NC(=O)[C@H](CC(=O)O)NC(=O)[C@@H]2CCCN2C(=O)[C@H](CC2CCC2)NC(=O)[C@H](Cc2ccc(O)cc2)NC1=O)C(=O)N[C@H](C)C(=O)N[C@@H](CC(=O)O)C(=O)N[C@@H](CCC(=O)O)C(=O)N[C@@H](Cc1ccc(O)cc1)C(=O)N[C@H](C(=O)N[C@@H](CCCCNC(=O)CCc1cn(CCOCCOCCOCCN(CCOCCOCCOCCC(=O)N[C@@H](CC(C)C)C(=O)N2CCC[C@H]2C(=O)N2CCC[C@H]2C(=O)N[C@H]2CSCCC(=O)N4CN5CN(C4)C(=O)CCSC[C@H](NC(=O)[C@H](CCC(=O)O)NC(=O)[C@H](CCCCNC(=N)N)NC(=O)[C@H](C(C)C)NC2=O)C(=O)N[C@@H](C)C(=O)N[C@@H](CC(C)(C)C)C(=O)N[C@@H](CC(C)C)C(=O)N[C@@H](Cc2ccccc2)C(=O)N2CCC[C@H]2C(=O)N[C@@H](CCCCNC(=N)N)C(=O)N[C@@H]([C@@H](C)O)C(=O)N[C@H](C(N)=O)CSCCC5=O)CCOCCOCCOCCn2cc(CCC(=O)NCCCC[C@H](NC(=O)[C@@H]4CSCCC(=O)N5CN6CN(C5)C(=O)CCSC[C@H](NC(=O)[C@H](CC(C)C)NC(=O)[C@H](Cc5ccc(O)cc5)NC(=O)[C@H](CC(=O)O)NC(=O)[C@@H]5CCCN5C(=O)[C@H](CC5CCC5)NC(=O)[C@H](Cc5ccc(O)cc5)NC(=O)[C@@H](NC(C)=O)CSCCC6=O)C(=O)N[C@H](C)C(=O)N[C@@H](CC(=O)O)C(=O)N[C@@H](CCC(=O)O)C(=O)N[C@@H](Cc5ccc(O)cc5)C(=O)N4)C(N)=O)nn2)nn1)C(N)=O)CSCCC3=O` [BCY18604] the same measures were 0.0079 nM and “enhanced NK cytotoxicity”.
For `CC(=O)N[C@H]1CSCCC(=O)N2CN3CN(C2)C(=O)CCSC[C@H](NC(=O)[C@H](CC(C)C)NC(=O)[C@H](Cc2ccc(O)cc2)NC(=O)[C@H](CC(=O)O)NC(=O)[C@@H]2CCCN2C(=O)[C@H](CC2CCC2)NC(=O)[C@H](Cc2ccc(O)cc2)NC1=O)C(=O)N[C@H](C)C(=O)N[C@@H](CC(=O)O)C(=O)N[C@@H](CCC(=O)O)C(=O)N[C@@H](Cc1ccc(O)cc1)C(=O)N[C@H](C(=O)N[C@@H](CCCCNC(=O)CCc1cn(CCOCCOCCOCCOCCOCCOCCOCCOCCOCCOCCOCCOCCOCCOCCOCCOCCOCCOCCOCCOCCOCCOCCOCCOCCC(=O)N[C@@H](C)C(=O)N[C@@H](CCCCNC(=N)N)C(=O)N[C@@H](CC(=O)O)C(=O)N[C@H]2CSCCC(=O)N4CN5CN(C4)C(=O)CCSC[C@H](NC(=O)[C@H](CC(C)C)NC(=O)[C@@H]4CCCN4C(=O)[C@H](CC(N)=O)NC(=O)[C@H](C(C)C)NC(=O)[C@H](CC(C)C)NC(=O)[C@@H]4C[C@@H](O)CN4C2=O)C(=O)N[C@@H](CC(C)C)C(=O)N[C@@H](Cc2c[nH]cn2)C(=O)N2CCC[C@H]2C(=O)N[C@H](CC(=O)O)C(=O)N[C@@H](Cc2c[nH]c4ccccc24)C(=O)N[C@@H](CCCCNC(=N)N)C(=O)N[C@H](C(N)=O)CSCCC5=O)nn1)C(N)=O)CSCCC3=O` [BCY18731] (I: A[hArg]DC[Hyp]LVNPLCLHP[dD]W[hArg]C-NH2 / II: Ac-CY[Cba]PDYLC[dA]DEYCK-NH2; linker I:4-I:11-I:18, II:1-II:8-II:13 via TATA; linker I:N-II:14 via X3; C-terminus assumed), the EC50 in series [1] (setting [2]) was found to be 0.018 nM.
As for “BCY17235: EphA2 peptide BCY9594 linked to NKp46 peptide (BCY17224) and CD16a peptide (BCY13883) via a TCA-[Peg23]3 linker (peptide 1 A[hArg]DC[Hyp]LVNPLCLHP[dD]W[hArg]C; peptide 2 Ac-CY[Cba]PDYLC[dA]DEYCK(Pent4ynoyl); peptide 3 ACRWSVEDPCGAWCAK(Pent4ynoyl); linker I:4-I:11-I:18, II:1-II:8-II:13 via TATA; linker III:2-III:10-III:14 via TBMT; also: chain 1 N-terminus and the K(PYA) of chains 2 and 3 joined through TCA-[Peg23]3 linker)”, in the series with HT1080-luc cells (NK:HT1080-luc co-culture, 24 hours, four-parameter logistic regression, FIGS. 2-4, 6-8, 10, read-out: EC50 NK cytotoxicity (tumor cell killing)), the EC50 stood at 0.014 nM. In the series with HT1080-luc cells, the “effect on tumor cell killing” value was “enhanced, dose-dependent effect on tumor cell killing”.
“I: A[hArg]DC[Hyp]LVNPLCLHP[dD]W[hArg]C-NH2 / II: ACNLQAPCMQTGKVCAK-NH2 / III: ACNLQAPCMQTGKVCAK-NH2 (linker I:4-I:11-I:18, II:2-II:8-II:15, III:2-III:8-III:15 via TATA; linker I:N-II:17-III:17 via X1; C-terminus assumed) [BCY15924]”: the EC50 in series [1] (FIG. 9) was 0.5 nM. Besides, the “effect on tumor cell killing” value in the series with HT1080-luc cells is listed as “enhanced NK cytotoxicity”.
Consider “I: A[hArg]DC[Hyp]LVNPLCLHP[dD]W[hArg]C-NH2 / II: Ac-CY[Cba]PDYLC[dA]DEYCK-NH2 / III: Ac-CY[Cba]PDYLC[dA]DEYCK-NH2 (linker I:4-I:11-I:18, II:1-II:8-II:13, III:1-III:8-III:13 via TATA; linker I:N-II:14-III:14 via X1; C-terminus assumed) [BCY17226]”, for which the EC50 in series [1] (setting [2]) is 0.0061 nM. Further, in the series on HT1080-luc cells, the “effect on tumor cell killing” value is given as “dose-dependent NK cell response to kill”.
“I: Ac-D[hArg]CSAGWLTMCQKLHLCPSH-NH2 / II: Ac-CY[Cba]PDYLC[dA]DEYCK-NH2 / III: Ac-CY[Cba]PDYLC[dA]DEYCK-NH2 (linker I:3-I:11-I:17, II:1-II:8-II:13, III:1-III:8-III:13 via TATA; linker I:13-II:14-III:14 via X1; C-terminus assumed) [BCY18603]”: the EC50 in series [1] (setting [2]) worked out at 0.003 nM. Besides, the “effect on tumor cell killing” value with HT1080-luc cells was “enhanced NK cytotoxicity”.
